Experimental data taken from ChEMBL document CHEMBL3044895, “Insecticidal and Antiacetyicholinesterase Activities of Isobutylthioaryl Methanesulfonates” (J Pestic Sci, 1991).

Legend:
Nephotettix cincticeps [1] = test: Insecticidal activity against drug-resistant Nephotettix cincticeps Izumi (green rice leafhopper) assessed as mortality […] after 2 days by foliar spraying method; type: functional; conditions: 48 h
[2] = Drug degradation in sorensen buffer assessed as hydrolysis at 3 x 10^-5 M at pH 7.4 after 24 hr; type: physicochemical; conditions: read-out: Drug degradation
[3] = Lipophilicity, log K of the compound; type: physicochemical; conditions: octanol/water
Nephotettix cincticeps [4] = test: Insecticidal activity against Nephotettix cincticeps Izumi (green rice leafhopper) assessed as mortality at 200 ppm after 2 days by foliar spraying method; type: functional; conditions: 48 h
Plutella xylostella = test: Insecticidal activity against Plutella xylostella (diamondback moth) assessed as mortality at 200 ppm after 2 days by foliar spraying method; type: functional; conditions: 48 h
Nilaparvata lugens [5] = test: Insecticidal activity against Nilaparvata lugens (brown planthopper) assessed as mortality at 200 ppm after 2 days by foliar spraying method; type: functional; conditions: 48 h
Culex pipiens = test: Insecticidal activity against Culex pipiens assessed as mortality at 200 ppm after 2 days by immersion method; type: functional; conditions: 48 h
Tetranychus urticae = test: Acaricidal activity against Tetranychus urticae (two-spotted spider mite) assessed as mortality at 200 ppm after 2 days by leaf dipping method; type: functional; conditions: foliar, 48 h
Nephotettix cincticeps [6] = test: Insecticidal activity against drug-susceptible Nephotettix cincticeps Ageo (green rice leafhopper) assessed as mortality […] after 2 days by foliar spraying method; type: functional; conditions: 48 h
Musca domestica = test: Insecticidal activity against Musca domestica (house fly) NAIDM; type: functional
Nephotettix cincticeps [7] = test: Insecticidal activity against drug-susceptible Nephotettix cincticeps Ageo (green rice leafhopper) assessed as mortality after 2 days by foliar spraying method; type: functional; conditions: 48 h
Acetylcholinesterase [8] = molecular target: Acetylcholinesterase (Musca domestica, UniProt Q7YWJ9); test: Inhibition of Musca domestica (house fly) NAIDM head acetylcholinesterase; conditions: read-out: I50
[9] = molecular target: Ace-orthologous acetylcholinesterase (Nephotettix cincticeps, UniProt Q9NJH6); test: Inhibition of drug-susceptible Nephotettix cincticeps Ageo (green rice leafhopper) acetylcholinesterase; conditions: read-out: I50
Acetylcholinesterase [10] = molecular target: T1, Acetylcholinesterase (Bos taurus, UniProt P23795); test: Inhibition of Bos taurus (bovine) erythrocytes acetylcholinesterase; conditions: read-out: I50
T1 sequence (P23795 whole entry): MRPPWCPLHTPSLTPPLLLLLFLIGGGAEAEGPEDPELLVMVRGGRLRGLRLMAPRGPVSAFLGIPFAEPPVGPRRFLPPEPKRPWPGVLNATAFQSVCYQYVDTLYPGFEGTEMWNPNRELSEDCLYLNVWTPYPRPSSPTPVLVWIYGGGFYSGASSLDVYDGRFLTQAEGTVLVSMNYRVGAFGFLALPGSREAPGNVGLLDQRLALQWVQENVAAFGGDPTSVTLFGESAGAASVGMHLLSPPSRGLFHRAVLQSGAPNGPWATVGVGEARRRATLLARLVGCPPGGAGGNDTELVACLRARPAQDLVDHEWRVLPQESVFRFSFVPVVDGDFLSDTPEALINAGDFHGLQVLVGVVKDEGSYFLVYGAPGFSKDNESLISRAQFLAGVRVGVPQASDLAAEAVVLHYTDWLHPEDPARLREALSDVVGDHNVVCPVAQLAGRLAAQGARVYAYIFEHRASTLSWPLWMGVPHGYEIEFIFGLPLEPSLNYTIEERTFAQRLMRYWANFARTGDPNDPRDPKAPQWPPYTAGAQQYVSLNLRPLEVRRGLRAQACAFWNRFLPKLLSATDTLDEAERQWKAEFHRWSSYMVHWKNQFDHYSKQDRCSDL

Nephotettix cincticeps [11] = test: Insecticidal activity against Nephotettix cincticeps Izumi (green rice leafhopper) assessed as mortality at 200 ppm after 6 days by foliar spraying method; type: functional; conditions: 144 h
Nilaparvata lugens [12] = test: Insecticidal activity against Nilaparvata lugens (brown planthopper) assessed as mortality at 200 ppm after 6 days by foliar spraying method; type: functional; conditions: 144 h

Sequence of Ace-orthologous acetylcholinesterase (Q9NJH6 whole entry): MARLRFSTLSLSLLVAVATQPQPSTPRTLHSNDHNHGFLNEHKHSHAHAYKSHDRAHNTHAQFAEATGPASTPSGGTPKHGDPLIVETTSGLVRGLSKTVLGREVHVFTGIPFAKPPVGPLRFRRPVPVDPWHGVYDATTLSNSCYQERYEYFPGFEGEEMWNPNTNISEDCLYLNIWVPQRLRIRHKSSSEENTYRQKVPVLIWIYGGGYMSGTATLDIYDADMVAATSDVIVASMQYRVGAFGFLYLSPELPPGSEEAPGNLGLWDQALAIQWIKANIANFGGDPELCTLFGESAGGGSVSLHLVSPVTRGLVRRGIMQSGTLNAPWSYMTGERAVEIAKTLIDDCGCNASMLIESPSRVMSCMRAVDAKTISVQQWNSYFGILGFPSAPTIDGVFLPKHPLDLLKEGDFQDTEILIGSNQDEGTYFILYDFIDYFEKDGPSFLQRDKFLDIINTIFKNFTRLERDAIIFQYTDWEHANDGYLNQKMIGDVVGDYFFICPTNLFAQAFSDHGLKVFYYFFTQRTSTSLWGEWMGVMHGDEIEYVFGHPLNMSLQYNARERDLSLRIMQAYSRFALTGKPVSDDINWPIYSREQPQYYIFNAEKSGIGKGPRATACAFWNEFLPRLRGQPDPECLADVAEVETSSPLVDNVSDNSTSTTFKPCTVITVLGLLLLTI
Sequence of Acetylcholinesterase (Musca domestica, UniProt Q7YWJ9) (Q7YWJ9 whole entry): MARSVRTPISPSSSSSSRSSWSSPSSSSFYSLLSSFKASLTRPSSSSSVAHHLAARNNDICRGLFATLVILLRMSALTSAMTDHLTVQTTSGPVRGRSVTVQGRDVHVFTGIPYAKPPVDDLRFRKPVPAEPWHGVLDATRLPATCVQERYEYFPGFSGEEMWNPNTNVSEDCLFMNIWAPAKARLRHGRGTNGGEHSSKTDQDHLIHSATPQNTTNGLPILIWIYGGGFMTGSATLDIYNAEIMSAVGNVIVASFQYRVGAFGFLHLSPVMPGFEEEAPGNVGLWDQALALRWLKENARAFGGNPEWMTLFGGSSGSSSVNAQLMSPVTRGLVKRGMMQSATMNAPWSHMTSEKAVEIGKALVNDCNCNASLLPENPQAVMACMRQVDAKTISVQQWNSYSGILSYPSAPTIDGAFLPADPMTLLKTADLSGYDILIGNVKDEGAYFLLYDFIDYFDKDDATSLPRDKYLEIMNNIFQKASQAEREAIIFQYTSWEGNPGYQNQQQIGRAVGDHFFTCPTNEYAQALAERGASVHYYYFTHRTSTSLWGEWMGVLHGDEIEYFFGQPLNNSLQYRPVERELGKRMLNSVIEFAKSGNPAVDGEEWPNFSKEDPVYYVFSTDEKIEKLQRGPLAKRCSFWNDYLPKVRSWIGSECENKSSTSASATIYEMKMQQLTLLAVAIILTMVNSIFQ

Row | Structure (SMILES) | LD50 (Nephotettix cincticeps [1]) [mg/kg] | degraded at 24 h, 30 µM [2] [%] | log K [3] | mortality at 200 ppm (Nephotettix cincticeps [4]) [%] | mortality at 200 ppm (Plutella xylostella) [%] | mortality at 200 ppm (Nilaparvata lugens [5]) [%] | mortality at 200 ppm (Culex pipiens) [%] | mortality at 200 ppm (Tetranychus urticae) [%] | LD50 (Nephotettix cincticeps [6]) [mg/kg] | LD50 (Musca domestica) [µg] | LD50 (Nephotettix cincticeps [7]) [mg/kg] | IC50 (Acetylcholinesterase [8]) [µM] | IC50 [9] [µM] | IC50 (Acetylcholinesterase [10]) [µM] | mortality at 200 ppm (Nephotettix cincticeps [11]) [%] | mortality at 200 ppm (Nilaparvata lugens [12]) [%]
1 | CC(C)CSc1cncc(OS(C)(=O)=O)c1 [5-(ISOBUTYLTHIO)PYRIDIN-3-YL METHANESULFONATE] | 3.7 | 3.8 | 0.258 | 100 | 0 | 100 | 100 | < 10 | 1.9 |  |  |  |  |  |  | 
2 | CC(C)CS(=O)(=O)c1cccc(OS(C)(=O)=O)n1 |  |  |  |  |  |  |  |  |  | 16 | 1.15 | 0.15 | 0.0057 | 0.9 |  | 
3 | CC(C)CSc1ccnc(OS(C)(=O)=O)c1 [4-(ISOBUTYLTHIO)PYRIDIN-2-YL METHANESULFONATE] | 2.8 | 4.5 | 0.324 | 100 | 0 | 100 | 100 | < 10 | 2.3 |  |  |  |  |  |  | 
4 | CC(C)CSc1nnc(OS(C)(=O)=O)s1 [5-(ISOBUTYLTHIO)-1,3,4-THIADIAZOL-2-YL METHANESULFONATE] |  |  |  | 0 | 70 | 0 | 0 | < 10 |  |  |  |  |  |  | 0 | 20
5 | CC(C)C[S+]([O-])c1cccc(OS(C)(=O)=O)c1 (centres undefined) [3-(ISOBUTYLSULFINYL)PHENYL METHANESULFONATE] |  |  |  |  |  |  |  |  |  | 1.46 | 3.18 | 12 | 0.002 | 0.56 |  | 
6 | CC(C)CSc1ccc(OS(C)(=O)=O)nn1 [6-(ISOBUTYLTHIO)PYRIDAZIN-3-YL METHANESULFONATE] |  |  |  | 0 | 0 | 0 | 0 | < 10 |  |  |  |  |  |  | 0 | 0
7 | CCC(C)c1ccccc1OC(=O)NC (centres undefined) [FENOBUCARB] |  |  |  |  |  |  |  |  |  | 1.44 | 11.8 | 1.4 | 0.18 | 12 |  | 
8 | CC(C)CSc1nc(OS(C)(=O)=O)cs1 | 11.1 | 9.8 | 0.316 | 100 | 0 | 100 | 100 | < 10 | 8.2 | 3.9 | 14.9 | 2200 | 58 | 31 |  | 
9 | CNC(=O)Oc1cccc2ccccc12 [CARBARIL] |  |  |  |  |  |  |  |  |  |  |  | 0.2 | 0.029 |  |  | 
10 | CC(C)CSc1nccc(OS(C)(=O)=O)n1 | > 100 | 88.8 | 0.18 | 20 | 0 | 20 | 0 | < 10 | > 100 |  |  |  |  |  | 30 | 20
11 | CC(C)CS(=O)(=O)c1ccnc(OS(C)(=O)=O)c1 [4-(ISOBUTYLSULFONYL)PYRIDIN-2-YL METHANESULFONATE] |  |  |  |  |  |  |  |  |  | 0.33 | 0.72 | 1.9 | 0.026 | 0.8 |  | 
12 | CC(C)CSc1cncc(OS(C)(=O)=O)n1 [6-(ISOBUTYLTHIO)PYRAZIN-2-YL METHANESULFONATE] | 40.1 | 36.6 | 0.32 | 50 | 0 | 100 | 100 | < 10 | 4.6 |  |  |  |  |  | 70 | 
13 | CC(C)CSc1cccnc1OS(C)(=O)=O [3-(ISOBUTYLTHIO)PYRIDIN-2-YL METHANESULFONATE] |  |  |  | 40 | 0 | 50 | 30 | < 10 |  |  |  |  |  |  | 100 | 90
14 | CC(C)CSc1cccc(OS(C)(=O)=O)c1 [3-(ISOBUTYLTHIO)PHENYL METHANESULFONATE] | 26.1 | 2.6 | 0.541 | 100 | 0 | 100 | 100 | < 10 | 10.8 |  |  |  |  |  |  | 
15 | CC(C)CSc1ccc(OS(C)(=O)=O)nc1 [5-(ISOBUTYLTHIO)PYRIDIN-2-YL METHANESULFONATE] |  |  |  | 0 | 0 | 100 | 10 | < 10 |  |  |  |  |  |  | 10 | 
16 | CC(C)CSc1cccc(OS(C)(=O)=O)n1 [6-(ISOBUTYLTHIO)PYRIDIN-2-YL METHANESULFONATE] | 2.9 | 1.8 | 0.4 | 100 | 0 | 100 | 100 | 72 | 1.8 | 1.11 | 1.06 | 1300 | 2000 | 2000 |  | 
17 | CC(C)CS(=O)(=O)c1cccc(OS(C)(=O)=O)c1 [3-(ISOBUTYLSULFONYL)PHENYL METHANESULFONATE] |  |  |  |  |  |  |  |  |  | >100 | 13 | 0.37 | 0.046 | 1 |  | 
18 | CC(C)CSc1cc2ccccc2c(OS(C)(=O)=O)n1 [3-(ISOBUTYLTHIO)ISOQUINOLIN-1-YL METHANESULFONATE] |  |  |  | 20 | 0 | 0 | 50 | < 10 |  |  |  |  |  |  | 80 | 10
19 | CC(C)CSc1nc(OS(C)(=O)=O)cc2ccccc12 |  |  |  | 30 | 0 | 0 | 40 | < 10 |  |  |  |  |  |  | 60 | 60
20 | CC(C)CS(=O)(=O)c1nc(OS(C)(=O)=O)cs1 |  |  |  |  |  |  |  |  |  | >100 | 0.52 | 0.00098 | 0.0019 | 1.4 |  | 
